Reference: patent US20260273012A1, “Camellia Oleifera Tea Oil Concentrate and Uses Thereof” (Laboratoires Expanscience, priority 2023, published 2026)

Tests used:
Type in all cases: cell-based
[1] = test system: interleukin-1 alpha (IL-1 alpha); experiment: IL-1 alpha produced by normal human keratinocytes under PMA-induced inflammatory stress (ELISA); conditions: Dexamethasone 0.1 μM, PMA 10 μg/ml
Description: (§1) The anti-inflammatory activity of tea oil concentrate (THE) was investigated by assaying interleukin-1 alpha (IL-1 alpha) produced by keratinocytes in response to pro-inflammatory stress induced by PMA (Phorbol-Myristate-Acetate) in a normal human keratinocyte model, in a reconstructed epidermis model subjected to PMA stress, as well as in a reconstructed epidermis model subjected to SDS (Sodium Dodecyl Sulfate) stress.
Normal human keratinocytes were pre-incubated for 24 hours in the presence of 0.001%, 0.005% or 0.01% tea tree oil concentrate or 0.1 μM dexamethasone, an anti-inflammatory reference. The cells were then stimulated by overnight treatment in the presence of 10 μg/mL PMA (Phorbol-Myristate-Acetate).
At the end of treatment, IL-1 alpha produced was quantified by ELISA assay in culture supernatants.
The results were statistically analyzed by one-way analysis of variance (ANOVA), followed by Tukey post-test.

Interleukin-1 alpha = experiment: IL-1 alpha produced by reconstructed epidermis stimulated by PMA; conditions: Dexamethasone 1 μM systemically; PMA 0.5 μg/mL
Description: as §1
(§2) Reconstructed epidermis were treated topically with a formulation (cream) containing 1% tea tree oil concentrate or its placebo, or systemically with 1 μM dexamethasone, an anti-inflammatory reference. After 24 hours of pre-incubation, epidermis were stimulated with 0.5 μg/mL of PMA and incubated again for 24 hours.
Culture subnatants were collected then IL-1 alpha assay was performed.
(§3) The results were statistically analyzed using ANOVA followed by Tukey's test.
as §2, with “μg/ml” for “μg/mL”, “hours. […]” for “hours.”

[2] = test system: CXCL1, IL8, IL6, CCL2, SOD2, HAS2, MMP1, MMP3 gene expression in normal human dermal fibroblasts; experiment: Inflamm'aging model: gene expression in fibroblasts incubated with conditioned media of PMA-stimulated reconstructed epidermis; conditions: Dexa. 1 μM; control = 100
Description: Tea oil concentrate was evaluated in an in vitro model reproducing the process of “inflammaging”: inflammation, represented by the stimulation of IL-1 alpha production, is induced on reconstructed epidermis. The conditioned media of these reconstructed epidermis are then applied to fibroblasts and the expression of dermal markers, altered by IL1a produced by the epidermis, is evaluated.
as §2, with “μg/ml” for “μg/mL”
Culture subnatants were collected, IL-1 alpha assay was performed on the one hand, and on the other hand, these subnatants (conditioned media) were deposited on cultures of normal human dermal fibroblasts.
After 24 hours of incubation of fibroblasts in the presence of conditioned media, the expression of markers of interest was assessed by real-time quantitative PCR.
as §3

cortisol = experiment: Cortisol produced by skin explants stimulated by ACTH + 42° C. (ELISA); conditions: Metyrapone 1 mM
Description: Skin explants were treated topically with a formulation (cream) containing 1% tea oil concentrate, or its placebo, or treated systemically (in the culture medium) with 0.001% tea oil concentrate and the positive reference metyrapone at 1 mM. The explants were incubated for 24 hours then stressed with 0.6 μM ACTH (Adreno Corticotropic Hormone), a hormone that induces cortisol production. This stress was coupled with explant culture in a 42° C. incubator to potentiate the increase in cortisol production. The explants were again treated with topical products or the active ingredient and the positive reference systemically. After 24 hours of incubation, the culture media were recovered and an ELISA assay for cortisol was performed. The results were statistically analyzed by Student's test t.

[3] = test system: dermal matrix markers (Collagen III, Fibrillin 1); experiment: Gene expression of dermal matrix markers in normal human dermal fibroblasts (real-time PCR); conditions: TGFβ 1 5 ng/ml, 48 hours
Description: The effect of tea oil concentrate on the expression of dermal matrix markers was evaluated in cultured normal human dermal fibroblasts.
Normal human dermal fibroblasts were incubated for 48 hours in the presence of 0.001% and 0.005% tea oil concentrate or 5 ng/ml TGFβ1, the positive reference of the test.
Gene expression of Collagen Ill and Fibrillin 1 was evaluated by quantitative real-time PCR. The results were statistically analyzed by one-way analysis of variance (ANOVA), followed by Dunnett's post-test.

[4] = ACTH 0.6 μM + 42° C., Table 16 (systemic series)

For C[C@@H]1C[C@H]2[C@@H]3CCC4=CC(=O)C=C[C@]4(C)[C@@]3(F)[C@@H](O)C[C@]2(C)[C@@]1(O)C(=O)CO [Dexamethasone, dexamethasone], the IL-1 alpha ([1]; 24 h pre-incubation) was 66.6 ± 0.5 pg/mL, the “Protection (%)” value [1] was 74% and the “% Protection” value (Interleukin-1 alpha) was 48%. The Interleukin-1 alpha (Interleukin-1 alpha) was 334 ± 41 pg/mL, the “CCL2 expression level in relative quantity” value [2] was 193 and the “CXCL1 expression level in relative quantity” value [2] was 1503. The “HAS2 expression level in relative quantity” value [2] was 104, the “IL6 expression level in relative quantity” value [2] was 305 and the “IL8 expression level in relative quantity” value [2] was 1350. For the same compound, the “MMP1 expression level in relative quantity” value [2] was 52, the “MMP3 expression level in relative quantity” value [2] was 74 and the “SOD2 expression level in relative quantity” value [2] was 354.
CC(C)(C(=O)c1cccnc1)c1cccnc1 [Metyrapone, metyrapone] was tested, and the “Cortisol % Protection” value (cortisol; [4]) was 70%, the “Cortisol Relative quantification” value (cortisol; [4]) was 1.08 ± 0.12 and the “Cortisol Relative quantification” value (cortisol; ACTH 0.6 μM + 42° C., Table 17 (topical series)) was 1.08 ± 0.12. The “Cortisol % Protection (vs ACTH/42° C.)” value (cortisol; Table 17 (topical series)) was 73%.
“TGFβ 1: the positive reference of the test” was tested, and the “Collagen III gene expression (Relative Quantity)” value [3] was 1.55 ± 0.25, the “Fibrillin 1 gene expression (Relative Quantity)” value [3] was 1.53 ± 0.18 and the “Collagen III gene expression % induction” value ([3]; vs control cells) was “+78% p < 0.05”. For the same compound, the “Fibrillin 1 gene expression % induction” value ([3]; vs control cells) was “+74% p < 0.05”.
